Experimental data taken from US5908868A, “Retinol derivatives useful for enhancing immune response” (priority 1995, dated 1999).
“Also recorded” adds a separate entry of the source.

Assays:
5/2 cells = test: Growth (DNA synthesis, [3H]thymidine) of lymphoblastoid 5/2 cells in serum-free medium; type: cell-based, human; conditions: ITLB medium without retinol
Method: Washed 5/2 cells (5,000/well) were incubated for 72 hours in HB101 medium with the indicated amounts of retinoids. DNA synthesis was measured by [^3 H] thymidine uptake. The measurements were done in triplicate. The SDs were <15%.
In FIGS. 4B to 4D, 5/2 cells were washed twice and seeded at a concentration of 150,000 cells/ml in HB 101 medium. Triplicate samples of 100 μl of cell suspension were removed daily and pulsed for 6 hours with [^3 H] thymidine. Means are shown. The SDs were never >20%.
P3 was purified as described in the Experimental Details section. 5/2 cells (5,000/well) were incubated for 72 hours in HB101 medium and refed with the indicated amount of retinoid daily. DNA synthesis was measured by [^3 H]-thymidine uptake. P3 is bioactive down to a concentration of 10-^8 M (FIG. 8). […] This is due either to chemical instability or to a more rapid metabolic degradation of P3 by the cells.
The assay was done in 96-well microtiter plates in a final volume of 200 ul/well. The cells were cultured for 72 hours and cell growth determined by [^3 H] thymidine (0.8 μCi/well)labeling for the last 16 hours. Retinoids were added at the indicated concentrations at the initiation of culture and every 24 hours thereafter.
The human EBV-transformed B-cell line 5/2 was established from the peripheral blood of a healthy donor. The cell line was grown in RPMI 1640 supplemented with 8% fetal calf serum, L-glutamine (2 mM), and antibiotics. The cell line was tested regularly for mycoplasma infections and was consistently negative.
The assay system is a modification of the assay developed by Blazar et al. (12). […] Assays were done in 96 well microtiter plates in a final volume of 200 μl/well or in 25 cm^2 tissue culture flasks. The cells in the microtiter plates were cultured for 72 hours and cell growth was determined by labeling for the last 16 hours with 0.8 μCi/well of [^3 H]thymidine (sp. act. 6.7 Ci/mmol). Growth in the culture flasks was determined in three aliquots of 100 μl taken at 24 hours intervals and cultured in the presence of 0.8 μCi of [^3 H]thymidine for an additional 6 hour period. To determine the viable cell number, nine aliquots per time point were differentially counted in a Neubauer chamber in the presence of trypan blue.
5/2 cells were grown in the absence of retinol in a medium containing the basic RPMI 1640 amino acid/salt mixture, insulin (5 μg/ml), transferrin (5 μg/ml), albumin (0.1%) and linoleic acid (10^-6 M) (ITLB). […] The dose-response curve shown in FIG. 26 indicates an effective concentration of 10^-7 M.

T cells = test: T cell activation/proliferation; type: cell-based, murine; conditions: with mitogen/anti-CD3
Method: They were seeded into 96-well flat-bottom plates at varying cellular densities in a final volume of 100 μl. In control experiments, cells were cultured in medium containing 10% FCS or 3% human serum and 5×10^-5 M 2 ME. […] Cultures were carried out in duplicate. Plates were incubated at 37° C. in a humidified 5% CO2 atmosphere. Cellular proliferation was determined by [^3 H] thymidine uptake (0.5 uCi/well; New England Nuclear, Boston, Mass.) after the incubation times indicated for each experiment with a 4 hour labeling pulse. Cells were harvested onto glass filter and [^3 H]TdR incorporation was determined by liquid scintillation counting. The data presented are the means of duplicate or six replicate cultures. The restriction to duplicate measurements was necessary to conserve scarce 14HRR. […] Each experiment was repeated at least twice.

lymphoblastoid 5/2 cells = test: Conversion of 13,14DHR to 14HRR by lymphoblastoid cells; type: in vitro ADME, human; conditions: 10^-6 M, 1 and 2 hours, ITLB
Method: FIGS. 25A through 25D. 13,14DHR can be converted to 14HRR by lymphoblastoid cells. 200,000 5/2 cells/ml were incubated with or without 10^-6 M 13,14DHR added in serum-free ITLB medium. After 1 and 2 hours, cells pellets corresponding to 10 ml of culture were delipidated and the corresponding lipid fractions separated on an analytical C18 reversed-phase column according to FIG. 20. Peaks were identified according to their retention times and their UV absorption patterns.
Lymphoblastoid 5/2 cells devoid of retinol were cultured in the presence or absence of 10^-6 M 13,14DHR for 1 and 2 hours in ITLB medium. The retinoids extracted from the cell pellets were separated by HPLC according to FIG. 20. […] There was no 14HRR measurable in control cultures.

lymph node T cells = test: Proliferation of anti-CD3 activated lymph node T cells; type: cell-based, BALB/c mouse
Excerpt: Growth curves of lymph node T cells depleted of antigen-presenting cells (FIG. 17A) with and without 10^-6 M retinol at 2×10^5 and 5×10^4 cells/well. (FIG. 17B) Dose-responses elicited by different retinoids in cultures of lymph node T cells depleted of antigen-presenting cells. Also shown are the growth curves of CD4^+ (FIG. 17C) and CD8^+ T lymphocytes (FIG. 17D) in the presence of either retinol, 14HRR, human serum or in their absence.
T lymphocytes, purified as described, 5×10^4 well, were activated with immobilized anti-CD3 antibody in ITLB medium. The indicated amounts of retinoids or human serum were added at initiation of cultures. […] 14HRR was added every 12 hours. DNA synthesis was measured by a 4 hour pulse with tritiated thymidine. SDs were ≤17%.
Mature T cells were obtained from pooled intestinal, axillary, inguinal and submandibular lymph nodes of 4 to 10-week-old BALB/c mice. To fractionate cells into CD4 and CD8 subsets and at the same time remove APC, a combination of adherence and complement lysis was used as follows:
Cells were cultured in serum-free medium, referred to as ITLB, containing RPMI 1640 supplemented with 8×10^-7 M insulin (5 μg/ml), 7×10^-8 M transferrin (5 μg/ml), 2×10^-6 M linoleic acid, 2×10^-6 M delipidated BSA (0.12 mg/ml), 2 mM L-glutamine, 1 mM sodium pyruvate and antibiotics. They were seeded into 96-well flat-bottom plates at varying cellular densities in a final volume of 100 μl. In control experiments, cells were cultured in medium containing 10% FCS or 3% human serum and 5×10^-5 M 2 ME. T cells and thymocytes were activated with immobilized, purified anti-mab CD3e or by the addition of Con A in the presence or absence of different concentrations of retinoids. Unless indicated otherwise, retinoids were replenished every 12 hours to maintain a reasonably constant concentration of these labile compounds in culture. The optimal concentration for stimulation of T cells was determined for each batch of anti-CD3 mAb and Con A. The optimal range of Con A was particularly narrow in serum-free medium (0.5-0.2 μg/ml) and varied with the cell density used. […] Cultures were carried out in duplicate. Plates were incubated at 37° C. in a humidified 5% CO2 atmosphere. Cellular proliferation was determined by [^3 H] thymidine uptake (0.5 uCi/well; New England Nuclear, Boston, Mass.) after the incubation times indicated for each experiment with a 4 hour labeling pulse. Cells were harvested onto glass filter and [^3 H]TdR incorporation was determined by liquid scintillation counting. The data presented are the means of duplicate or six replicate cultures. The restriction to duplicate measurements was necessary to conserve scarce 14HRR. They were within 20% of each other. Each experiment was repeated at least twice.

[1] = tested on: lymphoblastoid cells (LCL); conditions: serum-free medium; cited from earlier work

## CC(C=CC1=C(C)CCCC1(C)C)=CC=CC(C)(O)C(O)CO (stereo not drawn) [13,14DHR, 13,14-dihydroxy-retinol]
5/2 cells
  restoration of capacity to proliferate: proliferation was restored as well
T cells
  substitution for retinol in T cell activation: can effectively substitute for retinol
T cells; listed as 13,14 DHR
  substitution for retinol in T cell activation: capable of being used in lieu of retinol
Lymphoblastoid 5/2 cells
  conversion to 14HRR: produced 14HRR

## CC1=C(/C=C/C(C)=C/C=C/C(C)=C/C(=O)O)C(C)(C)CCC1 [all-trans retinoic acid]
Lymph node T cells; 10^-5 M
  stimulatory activity at 10^-5 M: very modest stimulatory activity
Lymph node T cells; anti-CD3
  stimulation of lymph node T cells: nearly inert
T cells
  substitution for retinol in T cell activation: not
T cells; listed as retinoic acid
  substitution for retinol in T cell activation: cannot be satisfied; also recorded: neither respond to externally provided retinoic acid
[1]
  support of growth of LCL: not
